Measured values taken from US9198886B2, “Use of 2,5-dihydroxybenzene for the treatment of ocular diseases” (priority 2006, dated 2015).

Assays:
[1] = test system: intestinal inflammatory disease induced by dextran sulfate sodium; assay: DSS-induced intestinal inflammatory disease in mice; format: in vivo, mice of strain C57BL/6J-664
Procedure: (§1) The mice were subject to two 7-day cycles of exposure to dextran sulfate sodium (DSS) (from day 1 to 7 and from day 14 to 21) in the drinking water separated by 7 days in which regular water was provided (from 7 to 14). One group was treated with vehicle (0.9% NaCl), another with Solu-Medrol (10 mg/kg/day i.m.), and the other two groups with potassium 2,5-diacetoxybenzene sulfonate (DABS), one of them with 100 mg/kg/day i.p. and the other with 125 mg/kg/day, orally (p.o.). The body weight was normalized on day 0. Data are expressed as the mean+SD of the percentage of the basal weight (day 0) of 10 mice per group.
as §1, with “(p.o.)” for “(p.o.). The body weight was normalized on day 0.”, “mean±SD” for “mean+SD”, “clinical score” for “percentage”, “disease continuously obtained from” for “basal weight (day 0) of”, “per each” for “per”
The induction of the intestinal inflammatory disease described below is a representative model for the evaluation of therapeutic strategies to treat Crohn's disease and ulcerative colitis. 7-8 week old female mice of strain C57BL/6J-664 were used. The intestinal inflammatory disease (HD) was induced by feeding the mice with 3% dextran sulfate sodium (DSS; MW 40,000) dissolved in drinking water in 2 cycles. Each cycle consisted of 7 days with 3% DSS in the drinking water separated by 7 days with regular water. A daily clinical evaluation of the animals was performed in which the body weight, the consistency of the faeces and the presence of blood in the faeces were determined. Thus, the validated score of the clinical activity of the disease was evaluated with a 0 to 6 scale, considering the following parameters: consistency of the faeces, presence or absence of fecal blood and loss of weight.
At the end of the first cycle of exposure to DSS, the mice were divided into the following treatment groups: a first group was administered intraperitoneal (i.p) injections of vehicle (0.9% NaCl). Another group received intramuscular injections of Solu-Medrol, a standard IID treatment, at a dose of 10 mg/kg/day. A third group was administered i.p. injections of potassium 2,5-diacetroxybenzene sulfonate (DABS, 100 mg/kg/day). The last group was treated orally with 125 mg/kg day of DABS.

[2] = test system: angiogenesis induced by Helicobacter pylori in the human gastric mucosa; assay: Gastric mucosa biopsy in a patient chronically infected with Helicobacter pylori; format: in vivo; details: 500 mg/day oral, one week
Procedure: FIG. 5. Helicobacter pylori • A) Hematoxylin-eosin staining of the gastric mucosa of a sample obtained from a patient infected with Helicobacter pylori before treatment. The arrows and the asterisk indicate the formation of neovessels in the mucosa protruding the gastric lumen through the lost epithelial layer. • B) Hematoxylin-eosin staining of the gastric mucosa of a sample obtained from the same patient infected with Helicobacter pylori after administering 500 mg of 2,5-dihydroxybenzenesulfonate (DHBS) daily for a week.
A biopsy of the gastric mucosa was performed in a patient chronically infected with Helicobacter pylori before the oral treatment with 2,5-dihydroxybenzene sulfonic acid (Dobesilate) (500 mg/day). After a week of treatment, another biopsy was performed in the patient. Both biopsies were evaluated using hematoxylin-eosin staining. […] Microscopically, the arrows and the asterisk indicate the formation of neovessels in the mucosa protruding the gastric lumen through the lost epithelial layer. […] This example illustrates that the use of DHBS is beneficial in the treatment of gastritis and angiogenesis caused by the infection with Helicobacter pylori.

pterygium = assay: Topical solution in a patient with unilateral pterygium; format: in vivo, human; details: 2.5% solution, one drop four times per day, two weeks
Source text: FIG. 3. […] The treatment consists of the application of 4 drops of said solution daily, for two weeks.
The solution was applied topically to a patient suffering from unilateral pterygium, as one drop four times per day.

Compound | disease clinical score ([1]; 100 mg/kg/day i.p.) | disease clinical score ([1]; 125 mg/kg/day orally) | loss of body weight produced by two cycles of DSS ([1]; DABS 100 mg/kg/day i.p. or 125 mg/kg/day p.o., Solu-Medrol 10 mg/kg/day i.m., vs vehicle) | efficacy compared with standard treatment Solu-Medrol ([1]; body weight and clinical score, Solu-Medrol 10 mg/kg/day i.m.) | angiogenic activity in gastric mucosa [2] | epithelial membrane of gastric mucosa [2] | gastric mucosa symptoms of congestion and erythema [2] | pterygium appearance (pterygium)
CC(=O)Oc1ccc(OC(C)=O)c(S(=O)(=O)[O-])c1.[K+] [DABS, potassium 2,5-diacetoxybenzene sulfonate] | reduced | reduced | reduced | not lower (in some points it is higher) |  |  |  | 
O=S(=O)(O)c1cc(O)ccc1O [DHBS, 2,5-dihydroxybenzene sulfonic acid] |  |  |  |  | less angiogenic activity | apparently normal | symptoms of congestion and erythema disappear | partial reversal of the pterygium
